Structures can show the parent of a compound that is named as a salt. Where two headings read alike, the source gives them in different places.
Experiment: Pharmacokinetic study of Icotinib hydrochloride and Polymorph Form II of Icotinib, oral suspension, plasma by HPLC
Assay type: in vivo
Conditions: fasted male SD rats, oral suspension in sodium carboxymethyl cellulose, dose equivalent to 50 mg/kg Icotinib
Text: Pharmacokinetic Study of Icotinib Hydrochloride and the Polymorph Form II of Icotinib
Drugs and reagents: the Icotinib hydrochloride used in this study was of Crystalline Form I disclosed by the WO2010/003313. Polymorph Form II of Icotinib and Icotinib hydrochloride were ground to fine particles. The material content (purity) was not less than 99.0%. Sodium carboxymethyl cellulose was medical supply graded.
Experimental animals: SD rats were divided to the Icotinib hydrochloride group and a Polymorph Form II group.
Pharmaceutical preparation: the amount of each compound was weighed and then sodium carboxymethyl cellulose was added to result in the test compound's concentration of 0.5%. The solid mixture was then added to prepare a suspension thereof at a final concentration of […] in water.
Administration and sample collection: each suspension was administered orally to fasted SD rats at a dose equivalent to 50 mg/kg Icotinib in a dose volume of 5 ml/kg. 0.4 ml of blood was collected in EDTA-K pre anticoagulant tubes at time intervals of 0.5, 1, 1.5, 2, 4, 6, 8 and 24 hours after the administration of the test compound, centrifuged at 3000 rpm for 10 minutes, and 120 μl plasma was collected and kept in cold storage.
Samples were analyzed by high performance liquid chromatography. The chromatographic conditions utilized C18-silane bonded silica as stationary phase, 0.02 mol/L of sodium dihydrogen phosphate in acetonitrile (40:60, using sodium hydroxide solution to adjust pH to 5.0) as the mobile phase and a detection wavelength of 334 nm.

Tmax (hydrochloride) | AUC(0-inf) (male, SD, rat, po, 50 mg/kg) | half-life (male, SD, rat, po, 50 mg/kg) | AUC(0-t) (male, SD, rat, po, 50 mg/kg, read-out: AUC(0-24)) | Cmax (male, SD, rat, po, 50 mg/kg, read-out: Cmax) | AUC(0-24) | AUC(0-∞) | Cmax | T1/2 | Tmax | Structure (SMILES)
1.3 ± 1.1 h | 39800 ± 28500 ng·h/mL | 3.1 ± 1.4 h | 39200 ± 27600 ng·h/mL | 4900 ± 2600 ng/mL | – | – | – | – | – | C#Cc1cccc(Nc2ncnc3cc4c(cc23)OCCOCCOCCO4)c1 [Icotinib hydrochloride]
– | – | – | – | – | 62400 ± 30100 ng·h/mL | 63000 ± 30000 ng·h/mL | 5800 ± 2600 ng/mL | 3.5 ± 0.6 h | 4.5 ± 2.6 h | C#Cc1cccc(Nc2ncnc3cc4c(cc23)OCCOCCOCCO4)c1 [Polymorph Form II of Icotinib, Icotinib]

Source: patent US9611272B2, “Polymorphic forms of icotinib and uses thereof” (BETTA PHARMACEUTICALS CO., LTD, priority 2013, dated 2017)
